The structures appear in SMILES notation.

We go through 18 compounds from patent US10301317B2, “Inhibitors of ERK and methods of use” (Kura Oncology, Inc., priority 2013, dated 2019).

Common to all, as to type: cell-based
The subject of experiment [1] is phospho-p90 RSK (RSK1 Thr359/Ser363) in A375 (Braf V600E) cells. The experiment is described as follows: Phospho-p90 RSK ELISA using A375 (Braf V600E) cells. The settings on record: Homo sapiens, A-375, 2 hours compound treatment, read-out: Cellular Phospho-p90RSK IC50. A general note: In an ELISA, binding on a coated surface is turned into a signal by an enzyme label.

Another experiment deals with A375 cells. The experiment is described as follows: Tumor cell line proliferation assay (CellTiter Glo), A375. The conditions noted are these: Homo sapiens, A-375, 96 h, read-out: A375 (V599E) Cell Proliferation IC50. (In general: In ATP-based viability assays light output follows the ATP content of the culture.)
The subject of a further experiment is H358 (Kras, G12C) cells. The experiment is described as follows: Tumor cell line proliferation assay (CellTiter Glo), H358. The settings on record: Homo sapiens, NCI-H358, 96 hours.

As for `Cn1cc(-c2n[nH]c3cc4c(cc23)CN(Cc2ccc(F)c(Cl)c2)C(=O)N4)cn1` [Example 31], the IC50 in experiment [1] was at most 250 nM; in the experiment with A375 cells it was 250 to 1000 nM; in the experiment on H358 (Kras, G12C) cells, 250 to 1000 nM.

Take `Cc1cc(-c2n[nH]c3cc4c(cc23)CN([C@@H]2CCCNC2)C(=O)N4)ccn1` [Example 32]: the IC50 in experiment [1] is over 1000 nM; in the experiment with A375 cells, over 1000 nM; in the experiment with H358 (Kras, G12C) cells, over 1000 nM.

Take `Cc1cc(-c2n[nH]c3cc4c(cc23)CN([C@@H]2CCCN(C)C2)C(=O)N4)ccn1` [Example 33]: the IC50 in experiment [1] was over 1000 nM; in the experiment with A375 cells, over 1000 nM; in the experiment with H358 (Kras, G12C) cells, over 1000 nM.

Consider `Cc1cc(-c2n[nH]c3cc4c(cc23)CN(C2CCNCC2)C(=O)N4)ccn1` [Example 34], for which the IC50 in experiment [1] was over 1000 nM; with A375 cells, over 1000 nM; with H358 (Kras, G12C) cells, over 1000 nM.

In the case of `Cc1cc(-c2n[nH]c3cc4c(cc23)CN([C@H](C)c2cccc(Cl)c2)C(=O)N4)ccn1` [Example 35], the IC50 in experiment [1] was at most 250 nM; in the experiment with A375 cells, 250 to 1000 nM; in the experiment on H358 (Kras, G12C) cells, at most 250 nM.

Consider `COc1ccc(-c2n[nH]c3cc4c(cc23)CN(Cc2ccc(F)c(Cl)c2)C(=O)N4)cn1` [Example 36], for which the IC50 was 250 to 1000 nM in experiment [1]; 250 to 1000 nM in the experiment with A375 cells; 250 to 1000 nM in the experiment on H358 (Kras, G12C) cells.

On to `COc1ncc(-c2n[nH]c3cc4c(cc23)CN(Cc2ccc(F)c(Cl)c2)C(=O)N4)cn1` [Example 37], for which the IC50 in experiment [1] is at most 250 nM; in the experiment with A375 cells it was 250 to 1000 nM; with H358 (Kras, G12C) cells, 250 to 1000 nM.

In the case of `Cc1cc(-c2n[nH]c3cc4c(cc23)CN(Cc2ccc(C#N)cc2)C(=O)N4)ccn1` [Example 39], the IC50 is 250 to 1000 nM in experiment [1]; over 1000 nM in the experiment on A375 cells; 250 to 1000 nM in the experiment on H358 (Kras, G12C) cells.

Regarding `Cn1cc(-c2n[nH]c3cc4c(cc23)CN(Cc2ccc(F)c(Cl)c2)C(=O)N4)ccc1=O` [Example 41], the IC50 in experiment [1] is at most 250 nM; in the experiment on A375 cells, 250 to 1000 nM; with H358 (Kras, G12C) cells it was 250 to 1000 nM.

As to `Cc1cc(-c2n[nH]c3cc4c(cc23)CN(Cc2cscn2)C(=O)N4)ccn1` [Example 47], the IC50 is 250 to 1000 nM in experiment [1]; over 1000 nM in the experiment on A375 cells; over 1000 nM in the experiment on H358 (Kras, G12C) cells.

`Cc1cc(-c2n[nH]c3cc4c(cc23)CN([C@@H]2CCCOC2)C(=O)N4)ccn1` [Example 49]: the IC50 in experiment [1] was 250 to 1000 nM; in the experiment with A375 cells it was over 1000 nM; in the experiment with H358 (Kras, G12C) cells, over 1000 nM.

As to `Cc1cc(-c2n[nH]c3cc4c(cc23)CN([C@@H]2CCCN(Cc3ccccc3)C2)C(=O)N4)ccn1` [Example 63], the IC50 in experiment [1] was at most 250 nM; with A375 cells, at most 250 nM; in the experiment with H358 (Kras, G12C) cells, at most 250 nM.

With `CCC(c1ccccc1)c1cc2cc3c(-c4ccnc(C)c4)n[nH]c3cc2[nH]c1=O` (stereo not drawn) [Example 64], the IC50 in experiment [1] is at most 250 nM; in the experiment on A375 cells it was at most 250 nM; in the experiment on H358 (Kras, G12C) cells it was at most 250 nM.

Consider `COc1ncc(-c2n[nH]c3cc4c(cc23)CN(Cc2cccc(Cl)c2)C(=O)N4)cn1` [Example 68], for which the IC50 in experiment [1] is at most 250 nM; in the experiment with A375 cells, at most 250 nM; in the experiment with H358 (Kras, G12C) cells, 250 to 1000 nM.

In the case of `Cc1cc(-c2n[nH]c3cc4c(cc23)CN(Cc2cccc(Cl)c2)C(=O)N4)cc(C)n1` [Example 77], the IC50 was at most 250 nM in experiment [1]; at most 250 nM in the experiment with A375 cells; 250 to 1000 nM in the experiment with H358 (Kras, G12C) cells.

`Cc1cc(-c2n[nH]c3cc4[nH]c(=O)c([C@H](C)c5ccccc5)cc4cc23)ccn1` [Example 84]: the IC50 in experiment [1] is at most 250 nM; in the experiment with A375 cells, at most 250 nM; in the experiment on H358 (Kras, G12C) cells it was at most 250 nM.

Regarding `COc1ncc(-c2n[nH]c3cc4c(cc23)CN(Cc2ccc(F)cc2F)C(=O)N4)cn1` [Example 99], the IC50 was at most 250 nM in experiment [1]; 250 to 1000 nM with A375 cells; 250 to 1000 nM in the experiment on H358 (Kras, G12C) cells.

For the compound `COc1ncc(-c2n[nH]c3cc4c(cc23)CN([C@@H]2CCCN(Cc3ccccc3F)C2)C(=O)N4)cn1` [Example 101], the IC50 in experiment [1] was at most 250 nM; with A375 cells, at most 250 nM; in the experiment with H358 (Kras, G12C) cells, at most 250 nM.
